Experimental data taken from ChEMBL document CHEMBL5465560, “Selectivity Literature for EUbOPEN Chemogenomic Library” (2024).
Values belong to the compound of their own block, whether it stands above or below them.

Assays:
[1] = molecular target: T1, MAP kinase-activated protein kinase 5 (Homo sapiens) (UniProt Q8IW41); details: at 10 µM
T1 sequence (whole entry): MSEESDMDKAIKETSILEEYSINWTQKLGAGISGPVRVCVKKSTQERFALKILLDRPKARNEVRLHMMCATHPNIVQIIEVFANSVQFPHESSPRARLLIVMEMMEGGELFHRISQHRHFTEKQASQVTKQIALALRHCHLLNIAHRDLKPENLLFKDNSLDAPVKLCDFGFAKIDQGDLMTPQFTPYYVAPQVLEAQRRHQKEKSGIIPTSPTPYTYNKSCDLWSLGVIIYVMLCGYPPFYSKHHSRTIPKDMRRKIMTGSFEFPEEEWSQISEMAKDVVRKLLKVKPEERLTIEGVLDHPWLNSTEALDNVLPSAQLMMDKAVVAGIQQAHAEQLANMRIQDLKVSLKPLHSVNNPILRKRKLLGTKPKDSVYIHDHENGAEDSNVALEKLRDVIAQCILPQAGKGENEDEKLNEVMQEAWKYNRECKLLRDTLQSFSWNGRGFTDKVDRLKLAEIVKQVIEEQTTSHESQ

[2] = molecular target: T2, Ephrin type-B receptor 2 (Homo sapiens) (UniProt P29323); assay: Selectivity interaction (KinomeScan (DiscoverX)) EUB0000607a EPHB2; details: at 10 µM
T2 sequence (whole entry): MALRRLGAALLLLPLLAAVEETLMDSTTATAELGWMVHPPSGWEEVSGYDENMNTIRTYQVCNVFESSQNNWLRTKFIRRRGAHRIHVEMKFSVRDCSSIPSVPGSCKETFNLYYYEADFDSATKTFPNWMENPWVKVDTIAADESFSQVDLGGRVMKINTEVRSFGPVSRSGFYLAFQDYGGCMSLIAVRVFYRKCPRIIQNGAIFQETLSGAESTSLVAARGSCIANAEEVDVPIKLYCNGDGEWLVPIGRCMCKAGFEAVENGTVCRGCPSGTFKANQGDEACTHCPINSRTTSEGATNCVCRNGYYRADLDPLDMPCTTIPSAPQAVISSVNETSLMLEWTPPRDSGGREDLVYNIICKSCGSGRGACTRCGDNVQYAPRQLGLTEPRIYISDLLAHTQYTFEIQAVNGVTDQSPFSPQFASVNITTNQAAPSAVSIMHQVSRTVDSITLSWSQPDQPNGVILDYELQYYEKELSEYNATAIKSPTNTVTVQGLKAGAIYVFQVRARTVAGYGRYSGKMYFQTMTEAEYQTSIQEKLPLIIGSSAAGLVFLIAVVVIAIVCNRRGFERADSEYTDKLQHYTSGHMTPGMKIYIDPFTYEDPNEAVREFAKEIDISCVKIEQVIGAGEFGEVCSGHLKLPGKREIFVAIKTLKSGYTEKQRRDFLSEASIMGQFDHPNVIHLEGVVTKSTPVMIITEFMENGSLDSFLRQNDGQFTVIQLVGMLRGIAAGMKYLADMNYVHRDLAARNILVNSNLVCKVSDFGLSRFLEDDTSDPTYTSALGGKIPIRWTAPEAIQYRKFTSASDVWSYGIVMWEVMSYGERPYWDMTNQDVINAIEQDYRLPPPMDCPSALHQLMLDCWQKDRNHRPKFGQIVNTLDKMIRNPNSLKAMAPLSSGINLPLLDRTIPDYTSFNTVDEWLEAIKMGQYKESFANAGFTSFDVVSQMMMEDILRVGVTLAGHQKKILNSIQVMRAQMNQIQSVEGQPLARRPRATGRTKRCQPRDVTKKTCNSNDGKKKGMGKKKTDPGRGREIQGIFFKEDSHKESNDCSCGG

[3] = molecular target: Tyrosine-protein kinase ABL1 (Homo sapiens, UniProt P00519); assay: Selectivity interaction (Kinase panel (KiNativ target engagement assay in Jurkat cells)) EUB0001635a ABL1; format: cell-based; details: Selectivity number of off-targets 0.0, Selectivity number of targets 233.0, Source Knowledge https://www.sciencedirect.com/science/article/pii/S2451945619300674?via%3Dihub, at 1 µM
[4] = molecular target: Epidermal growth factor receptor (Homo sapiens, UniProt P00533); assay: Selectivity interaction (Kinase panel (Invitrogen)) EUB0000639a EGFR; details: at 200 nM
[5] = molecular target: Tyrosine-protein kinase JAK1 (Homo sapiens, UniProt P23458); assay: Selectivity interaction (ActivX KiNativ screen (kinase selectivity in THP-1 cell lysates)) EUB0000639a JAK1; format: subcellular; details: lysate, at 0.04 µM
[6] = molecular target: Interferon-induced, double-stranded RNA-activated protein kinase (Homo sapiens) (UniProt P19525); assay: Selectivity interaction (ActivX KiNativ screen (kinase selectivity in THP-1 cell lysates)) EUB0000639a EIF2AK2; format: subcellular; details: lysate
[7] = molecular target: SWI/SNF-related matrix-associated actin-dependent regulator of chromatin subfamily A member 4 (Homo sapiens) (UniProt P51532); assay: Selectivity interaction (Bromodomain panel (DSF asssay)) EUB0000270b SMARCA4
Activated CDC42 kinase 1 = Activated CDC42 kinase 1 (Homo sapiens, UniProt Q07912); assay: Selectivity interaction (KinomeScan (DiscoverX)) EUB0000229b TNK2; details: at 10 µM
[8] = molecular target: Mitogen-activated protein kinase 7 (Homo sapiens) (UniProt Q13164); assay: Selectivity interaction (KinomeScan (DiscoverX)) EUB0001049a MAPK7; details: at 1 µM

Chain of Interferon-induced, double-stranded RNA-activated protein kinase (Homo sapiens) (P19525 whole entry): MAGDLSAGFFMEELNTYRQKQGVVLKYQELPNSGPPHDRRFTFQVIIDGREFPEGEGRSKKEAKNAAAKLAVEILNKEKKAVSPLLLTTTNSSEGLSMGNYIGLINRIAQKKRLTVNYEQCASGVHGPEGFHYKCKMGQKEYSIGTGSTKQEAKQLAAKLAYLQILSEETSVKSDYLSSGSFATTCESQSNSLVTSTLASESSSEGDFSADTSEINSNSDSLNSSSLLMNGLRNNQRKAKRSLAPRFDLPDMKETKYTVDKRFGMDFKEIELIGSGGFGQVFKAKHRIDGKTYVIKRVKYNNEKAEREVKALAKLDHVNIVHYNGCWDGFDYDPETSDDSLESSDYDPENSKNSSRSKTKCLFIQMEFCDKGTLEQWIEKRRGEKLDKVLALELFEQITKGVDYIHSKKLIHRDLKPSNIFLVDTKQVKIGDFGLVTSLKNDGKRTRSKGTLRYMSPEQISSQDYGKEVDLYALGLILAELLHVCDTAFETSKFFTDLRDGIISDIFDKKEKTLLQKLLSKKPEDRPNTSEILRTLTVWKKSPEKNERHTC
Chain of Activated CDC42 kinase 1 (Q07912 whole entry, looked up): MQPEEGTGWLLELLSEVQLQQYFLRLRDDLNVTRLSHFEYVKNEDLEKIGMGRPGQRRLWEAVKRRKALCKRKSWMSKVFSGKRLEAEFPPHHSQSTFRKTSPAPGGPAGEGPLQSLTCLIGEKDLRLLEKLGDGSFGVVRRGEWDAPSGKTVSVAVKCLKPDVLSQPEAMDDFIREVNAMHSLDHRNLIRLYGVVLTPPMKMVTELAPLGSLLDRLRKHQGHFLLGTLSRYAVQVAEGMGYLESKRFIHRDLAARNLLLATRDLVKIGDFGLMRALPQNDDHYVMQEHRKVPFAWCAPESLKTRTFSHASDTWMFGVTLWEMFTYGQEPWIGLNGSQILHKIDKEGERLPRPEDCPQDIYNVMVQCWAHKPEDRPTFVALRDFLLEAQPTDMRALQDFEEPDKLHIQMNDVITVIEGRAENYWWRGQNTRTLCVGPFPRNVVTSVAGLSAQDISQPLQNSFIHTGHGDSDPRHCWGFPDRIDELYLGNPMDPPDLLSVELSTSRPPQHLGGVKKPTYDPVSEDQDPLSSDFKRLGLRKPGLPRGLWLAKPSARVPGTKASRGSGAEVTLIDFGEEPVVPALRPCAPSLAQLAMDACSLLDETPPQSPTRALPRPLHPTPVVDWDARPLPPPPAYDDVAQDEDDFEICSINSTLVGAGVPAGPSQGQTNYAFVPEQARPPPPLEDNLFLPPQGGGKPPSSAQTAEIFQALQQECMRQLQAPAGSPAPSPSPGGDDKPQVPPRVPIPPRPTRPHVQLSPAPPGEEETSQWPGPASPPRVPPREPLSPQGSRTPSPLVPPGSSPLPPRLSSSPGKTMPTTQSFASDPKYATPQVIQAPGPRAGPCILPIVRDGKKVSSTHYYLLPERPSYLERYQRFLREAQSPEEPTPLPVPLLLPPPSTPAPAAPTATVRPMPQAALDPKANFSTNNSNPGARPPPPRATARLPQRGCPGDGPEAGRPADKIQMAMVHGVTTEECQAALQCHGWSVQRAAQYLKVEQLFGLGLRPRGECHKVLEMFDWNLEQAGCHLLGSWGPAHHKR
Chain of Tyrosine-protein kinase JAK1 (P23458 whole entry): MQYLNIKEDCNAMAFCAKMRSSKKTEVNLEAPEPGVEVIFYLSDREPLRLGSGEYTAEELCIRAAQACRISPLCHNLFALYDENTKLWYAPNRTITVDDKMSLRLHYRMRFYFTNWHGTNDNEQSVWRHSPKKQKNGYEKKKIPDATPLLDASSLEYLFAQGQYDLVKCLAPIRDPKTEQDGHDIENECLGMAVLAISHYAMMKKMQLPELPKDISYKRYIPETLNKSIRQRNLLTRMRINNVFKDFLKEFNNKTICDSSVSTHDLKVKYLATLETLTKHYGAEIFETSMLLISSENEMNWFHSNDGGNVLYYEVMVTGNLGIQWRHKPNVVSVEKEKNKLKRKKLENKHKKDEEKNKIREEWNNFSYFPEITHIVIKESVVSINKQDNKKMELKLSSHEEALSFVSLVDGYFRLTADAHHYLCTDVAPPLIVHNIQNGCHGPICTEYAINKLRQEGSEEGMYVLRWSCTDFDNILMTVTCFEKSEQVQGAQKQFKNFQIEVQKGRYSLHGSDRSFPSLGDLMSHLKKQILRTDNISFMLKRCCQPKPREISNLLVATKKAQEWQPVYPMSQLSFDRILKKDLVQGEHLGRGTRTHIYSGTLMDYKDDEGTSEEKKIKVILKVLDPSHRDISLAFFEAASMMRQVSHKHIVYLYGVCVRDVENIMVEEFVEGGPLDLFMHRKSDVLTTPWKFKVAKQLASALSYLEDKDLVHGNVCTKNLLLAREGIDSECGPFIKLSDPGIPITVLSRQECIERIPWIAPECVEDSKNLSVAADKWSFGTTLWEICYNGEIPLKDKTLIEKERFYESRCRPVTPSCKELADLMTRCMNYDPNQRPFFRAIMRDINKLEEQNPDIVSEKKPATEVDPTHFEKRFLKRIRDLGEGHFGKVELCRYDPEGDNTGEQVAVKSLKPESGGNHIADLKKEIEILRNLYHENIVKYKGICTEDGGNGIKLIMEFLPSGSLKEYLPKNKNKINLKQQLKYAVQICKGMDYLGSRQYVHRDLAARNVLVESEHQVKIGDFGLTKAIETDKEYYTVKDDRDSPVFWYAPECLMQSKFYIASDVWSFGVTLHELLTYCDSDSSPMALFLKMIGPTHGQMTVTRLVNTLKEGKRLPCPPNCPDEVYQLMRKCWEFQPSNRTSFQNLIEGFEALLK
Chain of Epidermal growth factor receptor (P00533 whole entry): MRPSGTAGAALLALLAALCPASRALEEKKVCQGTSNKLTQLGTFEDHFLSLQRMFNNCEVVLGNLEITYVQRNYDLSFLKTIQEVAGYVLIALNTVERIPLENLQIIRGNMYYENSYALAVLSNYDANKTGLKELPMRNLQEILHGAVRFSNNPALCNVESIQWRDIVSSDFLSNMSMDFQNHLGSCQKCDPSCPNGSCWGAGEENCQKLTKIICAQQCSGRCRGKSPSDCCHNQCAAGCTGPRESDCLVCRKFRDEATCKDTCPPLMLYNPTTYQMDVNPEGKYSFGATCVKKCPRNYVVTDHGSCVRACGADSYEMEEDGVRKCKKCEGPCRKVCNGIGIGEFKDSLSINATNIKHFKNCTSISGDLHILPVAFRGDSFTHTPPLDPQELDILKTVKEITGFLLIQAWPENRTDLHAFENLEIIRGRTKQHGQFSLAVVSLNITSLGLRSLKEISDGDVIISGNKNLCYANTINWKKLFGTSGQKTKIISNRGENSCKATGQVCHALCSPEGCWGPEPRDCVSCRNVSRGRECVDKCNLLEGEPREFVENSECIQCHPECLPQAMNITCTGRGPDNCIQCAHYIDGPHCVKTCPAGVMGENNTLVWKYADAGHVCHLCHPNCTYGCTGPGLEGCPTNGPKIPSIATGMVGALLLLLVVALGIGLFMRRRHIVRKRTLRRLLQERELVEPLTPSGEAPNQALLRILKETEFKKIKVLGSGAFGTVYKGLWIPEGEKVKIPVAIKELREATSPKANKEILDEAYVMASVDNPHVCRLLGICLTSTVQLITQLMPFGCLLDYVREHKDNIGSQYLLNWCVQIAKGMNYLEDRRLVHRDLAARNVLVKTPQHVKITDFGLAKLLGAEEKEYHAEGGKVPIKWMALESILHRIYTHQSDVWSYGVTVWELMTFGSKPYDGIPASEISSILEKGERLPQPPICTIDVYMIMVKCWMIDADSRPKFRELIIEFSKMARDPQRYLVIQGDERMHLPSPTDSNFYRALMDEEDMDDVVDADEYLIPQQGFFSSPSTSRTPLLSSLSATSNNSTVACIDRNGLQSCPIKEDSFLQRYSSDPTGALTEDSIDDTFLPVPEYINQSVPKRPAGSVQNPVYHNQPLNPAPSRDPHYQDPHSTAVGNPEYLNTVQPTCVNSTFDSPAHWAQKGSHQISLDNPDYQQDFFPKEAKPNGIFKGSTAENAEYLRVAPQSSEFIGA
Chain of Tyrosine-protein kinase ABL1 (P00519 whole entry): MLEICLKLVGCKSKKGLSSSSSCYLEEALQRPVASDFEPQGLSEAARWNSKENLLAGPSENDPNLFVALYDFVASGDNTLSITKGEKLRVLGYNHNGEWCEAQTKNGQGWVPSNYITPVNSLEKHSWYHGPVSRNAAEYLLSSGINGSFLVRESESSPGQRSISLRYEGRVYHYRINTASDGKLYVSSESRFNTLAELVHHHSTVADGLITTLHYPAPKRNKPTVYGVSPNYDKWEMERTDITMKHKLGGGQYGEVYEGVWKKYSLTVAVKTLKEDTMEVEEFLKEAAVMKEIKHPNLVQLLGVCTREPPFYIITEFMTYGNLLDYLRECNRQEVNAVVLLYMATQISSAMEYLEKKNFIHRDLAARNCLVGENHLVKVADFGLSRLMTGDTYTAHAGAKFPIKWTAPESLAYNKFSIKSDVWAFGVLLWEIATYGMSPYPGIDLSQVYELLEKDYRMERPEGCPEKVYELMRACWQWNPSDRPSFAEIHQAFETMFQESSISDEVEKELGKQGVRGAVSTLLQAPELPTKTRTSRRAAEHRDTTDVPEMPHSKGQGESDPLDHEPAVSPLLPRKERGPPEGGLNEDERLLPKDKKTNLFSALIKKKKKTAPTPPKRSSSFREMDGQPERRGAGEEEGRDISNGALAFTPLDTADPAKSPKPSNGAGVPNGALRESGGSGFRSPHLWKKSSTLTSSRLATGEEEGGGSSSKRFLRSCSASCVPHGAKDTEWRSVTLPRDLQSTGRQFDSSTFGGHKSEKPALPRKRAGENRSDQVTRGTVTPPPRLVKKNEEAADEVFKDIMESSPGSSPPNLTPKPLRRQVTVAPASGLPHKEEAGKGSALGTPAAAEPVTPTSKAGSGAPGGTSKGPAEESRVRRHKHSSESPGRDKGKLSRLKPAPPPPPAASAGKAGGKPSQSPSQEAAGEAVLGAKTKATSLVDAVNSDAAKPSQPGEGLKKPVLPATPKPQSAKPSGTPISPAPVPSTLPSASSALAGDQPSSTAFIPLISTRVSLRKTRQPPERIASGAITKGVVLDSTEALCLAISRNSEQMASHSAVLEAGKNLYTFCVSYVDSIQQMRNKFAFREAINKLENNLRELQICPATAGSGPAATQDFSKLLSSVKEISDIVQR

% of control [1]: 100%
SMILES: CCN(CC)CCCCNc1ncc2cc(-c3cc(OC)cc(OC)c3)c(NC(=O)NC(C)(C)C)nc2n1

SMILES: CNC(=O)Nc1ccc(-c2nc(N3CC4CCC(C3)O4)c3cnn(C4CCC5(CC4)OCCO5)c3n2)cc1
% of control [2]: 78%

SMILES: C=CC(=O)Nc1ccc(C(=O)Nc2[nH]nc3c2CN(C(=O)N[C@H](CN(C)C)c2ccccc2)C3(C)C)cc1
% of engagement [3]: -12.6%

% of inhibition [4]: 3.43%
% of inhibition [5]: 14.8%
% of inhibition ([6]; at 0.01 µM): 0.5%
% of inhibition ([6]; at 0.04 µM): -0.3%
% of inhibition ([6]; at 0.2 µM): 7.5%
% of inhibition ([6]; at 1 µM): -3.5%
% of inhibition ([6]; at 5 µM): -12.9%
SMILES: CC[C@@H]1[C@H](F)C(=O)N[C@@H]1COc1nccc2cc(C(N)=O)c(OC)cc12 [ZIMLOVISERTIB]

dTM [7]: -1.35 K
SMILES: Cc1cc(CN)cc(C)c1-c1ncn(C)c1-c1cncn1C

SMILES: COc1cc(N(C)c2ccnc3ccc(C(F)(F)F)cc23)cc(OC)c1OC
% binding (Activated CDC42 kinase 1): 89%

SMILES: COc1cc(Nc2nc(C)cc(-c3cnn4nc(OC)ccc34)n2)cc(C(F)(F)F)c1
% of control [8]: 83%
